Measurements: article PMC7918520, “From Data Mining of Chitinophaga sp. Genome to Enzyme Discovery of a Hyperthermophilic Metallocarboxypeptidase” (Microorganisms, 2021)
Peptide text beside a SMILES is read from it. * marks the point of attachment. Cbz = O=C(OCc1ccccc1)*

Key:
[1] = biological target: ChtCP, M32 family metallocarboxypeptidase from Chitinophaga sp. CB10 (Chitinophaga sp. CB10); assay: SEC; HiLoad Superdex 200 16/60, 20 mM Tris-HCl pH 8, 200 mM NaCl, 0.5% glycerol, 4 °C, 1 mL/min; elution volume compared with mass standards
[2] = biological target: T1, ChtCP (Chitinophaga sp. CB10, UniProt A0A822ZZF9); assay: Cd-ninhydrin assay of released amino acids, A500, Michaelis-Menten fit; format: biochemical; conditions: 50 mM HEPES pH 8.0, 65 °C; substrate 0.195 to 25 mM; metal addition not stated
T1 construct: homodimer; motifs 76HHPEL80 and 267HEXXH271
T1 sequence (A0A822ZZF9 entry or part of it): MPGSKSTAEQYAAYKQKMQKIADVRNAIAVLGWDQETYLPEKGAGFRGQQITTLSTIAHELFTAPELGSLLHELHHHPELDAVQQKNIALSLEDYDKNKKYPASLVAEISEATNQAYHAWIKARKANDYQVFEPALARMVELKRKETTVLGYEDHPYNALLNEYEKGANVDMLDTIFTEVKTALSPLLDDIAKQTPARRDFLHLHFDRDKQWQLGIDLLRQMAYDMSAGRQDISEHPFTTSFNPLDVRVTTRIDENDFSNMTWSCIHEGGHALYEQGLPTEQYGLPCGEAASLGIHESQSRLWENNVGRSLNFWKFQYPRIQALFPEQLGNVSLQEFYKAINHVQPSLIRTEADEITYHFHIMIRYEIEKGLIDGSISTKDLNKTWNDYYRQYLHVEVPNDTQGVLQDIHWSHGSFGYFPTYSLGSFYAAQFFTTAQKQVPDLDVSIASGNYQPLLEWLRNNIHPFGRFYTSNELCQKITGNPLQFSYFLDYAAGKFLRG
Text: Cd-ninhydrin assay of released amino acids, A500, Michaelis-Menten fit on ChtCP

Row | stoichiometry N [1] | Km [2] [mM] | Compound
1 | 2 | – | ChtCP, M32 family metallocarboxypeptidase from Chitinophaga sp. CB10 (enzyme)
2 | – | 28.1 | C[C@H](NC(=O)[C@H](C)NC(=O)OCc1ccccc1)C(=O)O [ZAA, benzyloxycarbonyl Ala-Ala] (Cbz-Ala-Ala-OH)
3 | – | 1.1 | C[C@H](NC(=O)OCc1ccccc1)C(=O)N[C@@H](Cc1c[nH]c2ccccc12)C(=O)O [ZAW, benzyloxycarbonyl Ala-Trp] (Cbz-Ala-Trp-OH)
4 | – | 3.51 | C[C@H](NC(=O)OCc1ccccc1)C(=O)N[C@@H](CCCNC(=N)N)C(=O)O [ZAR, benzyloxycarbonyl Ala-Arg] (Cbz-Ala-Arg-OH)
5 | – | 34.1 | C[C@H](NC(=O)OCc1ccccc1)C(=O)N[C@@H](CC(N)=O)C(=O)O [ZAN, benzyloxycarbonyl Ala-Asn] (Cbz-Ala-Asn-OH)
